Numbers after ± are expanded uncertainties.
Assay: molar heat capacity at constant pressure; xn = mol fraction of the nth substance listed
Settings: 100 kPa, Liquid

Cc1cccc(Cl)c1 [3-chlorotoluene] + O=C1CCCN1
molar heat capacity at constant pressure [J/K/mol]
Settings | 293.15 K | 298.15 K | 303.15 K
x2 = 0 | 175.21 ± 1.6 | 176.46 ± 1.6 | 177.67 ± 1.6
x2 = 0.0398 | 175.59 ± 1.6 | 176.89 ± 1.6 | 178.18 ± 1.6
x2 = 0.0798 | 176.05 ± 1.6 | 177.3 ± 1.6 | 178.65 ± 1.7
x2 = 0.1089 | 176.37 ± 1.6 | 177.6 ± 1.6 | 179.06 ± 1.7
x2 = 0.1443 | 176.74 ± 1.6 | 178.08 ± 1.6 | 179.55 ± 1.7
x2 = 0.1853 | 177.1 ± 1.6 | 178.48 ± 1.7 | 179.99 ± 1.7
x2 = 0.2234 | 177.49 ± 1.6 | 178.84 ± 1.7 | 180.42 ± 1.7
x2 = 0.2613 | 177.74 ± 1.6 | 179.25 ± 1.7 | 180.77 ± 1.7
x2 = 0.3095 | 178.12 ± 1.6 | 179.52 ± 1.7 | 181.15 ± 1.7
x2 = 0.3452 | 178.21 ± 1.6 | 179.69 ± 1.7 | 181.37 ± 1.7
x2 = 0.3865 | 178.3 ± 1.6 | 179.9 ± 1.7 | 181.5 ± 1.7
x2 = 0.4432 | 178.35 ± 1.6 | 179.92 ± 1.7 | 181.58 ± 1.7
x2 = 0.4836 | 178.22 ± 1.6 | 179.73 ± 1.7 | 181.43 ± 1.7
x2 = 0.5213 | 177.98 ± 1.6 | 179.53 ± 1.7 | 181.21 ± 1.7
x2 = 0.5643 | 177.56 ± 1.6 | 179.17 ± 1.7 | 180.87 ± 1.7
x2 = 0.6074 | 177.17 ± 1.6 | 178.68 ± 1.7 | 180.45 ± 1.7
x2 = 0.6408 | 176.64 ± 1.6 | 178.24 ± 1.6 | 179.95 ± 1.7
x2 = 0.6853 | 175.94 ± 1.6 | 177.56 ± 1.6 | 179.23 ± 1.7
x2 = 0.7214 | 175.28 ± 1.6 | 176.81 ± 1.6 | 178.55 ± 1.7
x2 = 0.7654 | 174.4 ± 1.6 | 175.89 ± 1.6 | 177.62 ± 1.6
x2 = 0.8069 | 173.44 ± 1.6 | 174.91 ± 1.6 | 176.65 ± 1.6
x2 = 0.8453 | 172.56 ± 1.6 | 173.94 ± 1.6 | 175.71 ± 1.6
x2 = 0.8812 | 171.61 ± 1.6 | 172.99 ± 1.6 | 174.68 ± 1.6
x2 = 0.9203 | 170.57 ± 1.6 | 171.93 ± 1.6 | 173.57 ± 1.6
x2 = 0.9564 | 169.6 ± 1.6 | 170.88 ± 1.6 | 172.55 ± 1.6

From the NIST ThermoML archive (doi:10.1021/je400408w)
